Measured values as given in patent publication US9018214B2, “Bicyclic heterocycle compounds and their uses in therapy” (Astex Therapeutics Limited, priority 2011, dated 2015).
Counter-ions that a name gives are not always drawn. Like-named read-outs stand apart in the source and are kept apart here.

How the values were obtained:
[1] = target: BIR3 domain of human cIAP-1 (residues 267-363) (Homo sapiens (Human), UniProt Q13490); assay: cIAP-1 in vitro competitive displacement binding assay (fluorescence polarization; Probe A AVPIK(5&6FAM)-amide or Probe B AbuRPFK(5&6FAM)-amide); conditions: for inhibition at […]: 3 h, read-out: IC50 or PI cIAP1: PI
[2] = tested on: EVSA-T (human breast carcinoma); assay: Anti-proliferative activity, Alamar Blue assay, EVSA-T; format: cell-based; conditions: Homo sapiens, EVSA-T, read-out: EVSA-T prolif (EC50)
[3] = target: BIR3 domain of human XIAP (residues 252-350) (Homo sapiens (Human), UniProt P98170); assay: XIAP in vitro competitive displacement binding assay (fluorescence polarization); conditions: for inhibition at 0.04 µM: 1 h, read-out: IC50 or PI Xiap: PI; for IC50: read-out: IC50 or PI Xiap: IC50
[4] = Probe B AbuRPFK(5&6FAM)-amide, read-out: IC50 or PI cIAP1: IC50

SMILES	EC50 ([2]; 72 hours, Alamar Blue)	inhibition at […] ([1]; Probe B, @ 0.012 μM)	IC50 [3]	inhibition at […] [1]	EC50 ([2]; 72 h)	other results
C[C@@H]1CN(CC(=O)N2CC(C)(C)c3cnc(Oc4ccccc4Cl)cc32)[C@@H](CN2CCOC2=O)CN1 [Example 189, 3-{[(2R,5R)-1-{2-[6-(2-Chlorophenoxy)-3,3-dimethyl-1H,2H,3H-pyrrolo[3,2-c]pyridin-1-yl]-2-oxoethyl}-5-methylpiperazin-2-yl]methyl}-1,3-oxazolidin-2-one hydrochloride]	190 nM	–	–	–	–	IC50 [1, 4]: 14 nM; inhibition at 0.04 µM ([3]; @ 0.04 μM): 70%
C[C@@H]1CN(CC(=O)N2CC(C)(C)c3cnc(Cc4ccc(F)cc4F)cc32)[C@@H](CN2CCOCC2=O)CN1 [Example 191, 4-{[(2R,5R)-1-(2-{6-[(2,4-Difluorophenyl)methyl]-3,3-dimethyl-1H,2H,3H-pyrrolo[3,2-c]pyridin-1-yl}-2-oxoethyl)-5-methylpiperazin-2-yl]methyl}morpholin-3-one hydrochloride]	17 nM	94%	47 nM	–	–	–
C[C@@H]1CN(CC(=O)N2CC(C)(C)c3cnc(Cc4ccc(F)cc4F)cc32)[C@@H](CN2CCCCC2=O)CN1 [Example 192, 1-{[(2R,5R)-1-(2-{6-[(2,4-Difluorophenyl)methyl]-3,3-dimethyl-1H,2H,3H-pyrrolo[3,2-c]pyridin-1-yl}-2-oxoethyl)-5-methylpiperazin-2-yl]methyl}piperidin-2-one hydrochloride]	8.8 nM	95%	58 nM	–	–	–
C[C@@H]1CN(CC(=O)N2CC(C)(C)c3cnc(Cc4ccc(F)cc4F)cc32)[C@@H](Cn2ccccc2=O)CN1 [Example 193, 1-{[(2R,5R)-1-(2-{6-[(2,4-Difluorophenyl)methyl]-3,3-dimethyl-1H,2H,3H-pyrrolo[3,2-c]pyridin-1-yl}-2-oxoethyl)-5-methylpiperazin-2-yl]methyl}-1,2-dihydropyridin-2-one dihydrochloride]	16 nM	–	–	98%	–	inhibition at 0.04 µM [3]: 44%
C[C@@H]1CN(CC(=O)N2CC(C)(C)c3cnc(Cc4ccc(F)cc4F)cc32)[C@@H](Cn2ncccc2=O)CN1 [Example 194, 2-{[(2R,5R)-1-(2-{6-[(2,4-Difluorophenyl)methyl]-3,3-dimethyl-1H,2H,3H-pyrrolo[3,2-c]pyridin-1-yl}-2-oxoethyl)-5-methylpiperazin-2-yl]methyl}-2,3-dihydropyridazin-3-one dihydrochloride]	–	–	55 nM	99%	9.8 nM	–
C[C@@H]1CN(CC(=O)N2CC(C)(C)c3cnc(Cc4ccc(F)cc4F)cc32)[C@@H](Cn2ccncc2=O)CN1 [Example 195, 1-{[(2R,5R)-1-(2-{6-[(2,4-Difluorophenyl)methyl]-3,3-dimethyl-1H,2H,3H-pyrrolo[3,2-c]pyridin-1-yl}-2-oxoethyl)-5-methylpiperazin-2-yl]methyl}-1,2-dihydropyrazin-2-one dihydrochloride]	–	–	67 nM	96%	36 nM	–
C[C@@H]1CN(CC(=O)N2CC(C)(C)c3cnc(C(F)(F)c4ccccc4)cc32)[C@@H](CN2CCN(C)C2=O)CN1 [Example 197, 1-{[(2R,5R)-1-(2-{6-[Difluoro(phenyl)methyl]-3,3-dimethyl-1H,2H,3H-pyrrolo[3,2-c]pyridin-1-yl}-2-oxoethyl)-5-methylpiperazin-2-yl]methyl}-3-methylimidazolidin-2-one hydrochloride]	49 nM	76%	–	–	–	inhibition at 0.04 µM ([3]; @ 0.04 μM): 68%
CCC(F)(F)c1cc2c(cn1)C(C)(C)CN2C(=O)CN1C[C@@H](C)NC[C@@H]1CN1CCCC1=O [Example 198, 1-{[(2R,5R)-1-{2-[6-(1,1-Difluoropropyl)-3,3-dimethyl-1H,2H,3H-pyrrolo[3,2-c]pyridin-1-yl]-2-oxoethyl}-5-methylpiperazin-2-yl]methyl}pyrrolidin-2-one]	880 nM	–	–	–	–	IC50 [1]: < 1000 nM; IC50 [1, 4]: 23 nM; inhibition at 0.04 µM ([3]; @ 0.04 μM): 69%
C[C@@H]1CN(CC(=O)N2CC(C)(C)c3ncc(Cc4ccc(F)cc4F)cc32)[C@@H](CN2CCOC2=O)CN1 [Example 200, 3-{[(2R,5R)-1-(2-{6-[(2,4-Difluorophenyl)methyl]-3,3-dimethyl-1H,2H,3H-pyrrolo[3,2-b]pyridin-1-yl}-2-oxoethyl)-5-methylpiperazin-2-yl]methyl}-1,3-oxazolidin-2-one dihydrochloride]	–	–	74 nM	96%	8.8 nM	–
C[C@@H]1CN(CC(=O)N2CC(C)(C)c3nnc(Cc4ccc(F)cc4F)cc32)[C@@H](CN2CCCC2=O)CN1 [Example 201, 1-{[(2R,5R)-1-(2-{3-[(2,4-Difluorophenyl)methyl]-7,7-dimethyl-5H,6H,7H-pyrrolo[3,2-c]pyridazin-5-yl}-2-oxoethyl)-5-methylpiperazin-2-yl]methyl}pyrrolidin-2-one hydrochloride]	5.2 nM	88%	81 nM	–	–	–
C[C@@H]1CN(CC(=O)N2CC(C)(C)c3cnc(Cc4ccc(F)cc4F)cc32)[C@@H](CN2CC[C@H](F)C2)CN1 [Example 202, 1-{6-[(2,4-Difluorophenyl)methyl]-3,3-dimethyl-1H,2H,3H-pyrrolo[3,2-c]pyridin-1-yl}-2-[(2R,5R)-2-{[(3S)-3-fluoropyrrolidin-1-yl]methyl}-5-methylpiperazin-1-yl]ethan-1-one diydrochloride]	–	88%	77 nM	–	2.1 nM	–
C[C@@H]1CN(CC(=O)N2CC(C)(C)c3cnc(Cc4ccc(F)cc4F)cc32)[C@@H](CN2CC[C@@H](F)C2)CN1 [Example 203, 1-{6-[(2,4-Difluorophenyl)methyl]-3,3-dimethyl-1H,2H,3H-pyrrolo[3,2-c]pyridin-1-yl}-2-[(2R,5R)-2-{[(3R)-3-fluoropyrrolidin-1-yl]methyl}-5-methylpiperazin-1-yl]ethan-1-one dihydrochloride]	–	–	73 nM	97%	3.2 nM	–
C[C@@H]1CN(CC(=O)N2CC(C)(C)c3ncc(Cc4ccc(F)cc4F)cc32)[C@@H](CN2CC[C@H](F)C2)CN1 [Example 204, 1-{6-[(2,4-Difluorophenyl)methyl]-3,3-dimethyl-1H,2H,3H-pyrrolo[3,2-b]pyridin-1-yl}-2-[(2R,5R)-2-{[(3S)-3-fluoropyrrolidin-1-yl]methyl}-5-methylpiperazin-1-yl]ethan-1-one dihydrochloride]	–	–	110 nM	91%	21 nM	–
C[C@@H]1CN(CC(=O)N2CC(C)(C)c3ncc(Cc4ccc(F)cc4F)cc32)[C@@H](CN2CC[C@@H](F)C2)CN1 [Example 205, 1-{6-[(2,4-Difluorophenyl)methyl]-3,3-dimethyl-1H,2H,3H-pyrrolo[3,2-b]pyridin-1-yl}-2-[(2R,5R)-2-{[(3R)-3-fluoropyrrolidin-1-yl]methyl]-5-methylpiperazin-1-yl]ethan-1-one hydrochloride]	19 nM	97%	100 nM	–	–	–
Cc1nc(C)n(C[C@H]2CN[C@H](C)CN2CC(=O)N2CC(C)(C)c3cnc(Cc4ccc(F)cc4F)cc32)n1 [Example 206, 1-{6-[(2,4-Difluorophenyl)methyl]-3,3-dimethyl-1H,2H,3H-pyrrolo[3,2-c]pyridin-1-yl}-2-[(2R,5R)-2-[(dimethyl-1H-1,2,4-triazol-1-yl)methyl]-5-methylpiperazin-1-yl]ethan-1-one hydrochloride]	1.7 nM	97%	79 nM	–	–	–
C[C@@H]1CN(CC(=O)N2CC(C)(C)c3cnc(Cc4ccc(F)cc4F)cc32)[C@@H](CN2CCC(=O)C2)CN1 [Example 207, 1-{[(2R,5R)-1-(2-{6-[(2,4-Difluorophenyl)methyl]-3,3-dimethyl-1H,2H,3H-pyrrolo[3,2-c]pyridin-1-yl}-2-oxoethyl)-5-methylpiperazin-2-yl]methyl}pyrrolidin-3-one dihydrochloride]	–	–	57 nM	98%	4 nM	–
C[C@@H]1CN(CC(=O)N2CC(C)(C)c3cnc(Cc4ccc(F)cc4F)cc32)[C@@H](CN2CCC(F)(F)C2)CN1 [Example 208, 1-{6-[(2,4-Difluorophenyl)methyl]-3,3-dimethyl-1H,2H,3H-pyrrolo[3,2-c]pyridin-1-yl}-2-[(2R,5R)-2-[(3,3-difluoropyrrolidin-1-yl)methyl]-5-methylpiperazin-1-yl]ethan-1-one dihydrochloride]	–	–	64 nM	99%	4 nM	–
C[C@@H]1CN(CC(=O)N2CC(C)(C)c3cnc(Cc4ccc(F)cc4F)cc32)[C@@H](CN2CCOC2=O)CN1 [Example 209, 3-{[(2R,5R)-1-(2-{6-[(2,4-Difluorophenyl)methyl]-3,3-dimethyl-1H,2H,3H-pyrrolo[3,2-c]pyridin-1-yl}-2-oxoethyl)-5-methylpiperazin-2-yl]methyl}-1,3-oxazolidin-2-one dihydrochloride]	–	–	47 nM	90%	19 nM	–
CC(C)C(F)(F)c1cc2c(cn1)C(C)(C)CN2C(=O)CN1C[C@@H](C)NC[C@@H]1CN1CCCC1=O [Example 211, 1-{[(2R,5R)-1-{2-[6-(1,1-Difluoro-2-methylpropyl)-3,3-dimethyl-1H,2H,3H-pyrrolo[3,2-c]pyridin-1-yl]-2-oxoethyl}-5-methylpiperazin-2-yl]methyl}pyrrolidin-2-one hydrochloride]	630 nM	–	46 nM	–	–	IC50 [1]: < 1000 nM; IC50 [1, 4]: 22 nM
